The assay has as its system Plasmodium berghei. Nature of the assay: Luciferase/luciferin-expressing antifolate-resistant parasites were used to infect a culture of HepG2 cells that were pre-incubated with compounds. Infected hepatocytes emit light due to the luciferase reaction. Assay results are presented as the percent inhibition of light emission compared to control. […]. In kind it is functional. The following applies: sporozoite; for IC90: read-out: LUCIFERASE INFECTION ASSAY - IC90.

[1] abbreviates: read-out: LUCIFERASE INFECTION ASSAY - IC50.

In ChEMBL document CHEMBL4483862, “Open-source discovery of chemical leads for next-generation chemoprotective antimalarials” (2018) one finds IC50 and IC90 data, which are given here for 28 compounds.

Take `COc1ccc(-c2ccc3ncc(-c4ccc(NC(C)=O)cc4)n3n2)cc1OC`: the IC90 stood at 0.053 µM. Also, where the note is “HEPG2TOX_HILL_SLOPE 0.646, HEPG2TOX_R_SQUARED 0.97, PBLUC_HILL_SLOPE 3.16, PBLUC_R_SQUARED 0.759, read-out: LUCIFERASE INFECTION ASSAY - IC50”, the IC50 is 0.0264 µM.

In the case of `COc1ccccc1C(=O)OC(c1ccc(NC(=O)c2ccc(OC(F)F)cc2)cc1)(C(F)(F)F)C(F)(F)F`, the IC90 was 4.33 µM. Besides, the IC50 under setting [1] was determined as 3.51 µM.

Turning to `O=c1c2c(-c3ccccc3)csc2nc2c3ccccc3c(Cl)nn12`, the IC90 is above 10 µM. The IC50 under setting [1] was above 10 µM.

Turning to `CCCCn1c(SCC(=O)Nc2cc(C(F)(F)F)ccc2N2CCOCC2)nc2ccccc21`, the IC90 was above 10 µM. The IC50 under setting [1] is above 10 µM.

Turning to `NC(=O)C(C(=O)/C=C/c1ccc(Cl)cc1)=C1SCCS1`, the IC90 amounted to 7.51 µM. In addition, the IC50 (HEPG2TOX_HILL_SLOPE 2.58, HEPG2TOX_R_SQUARED 0.837, PBLUC_HILL_SLOPE 4.23, PBLUC_R_SQUARED 0.508, read-out: LUCIFERASE INFECTION ASSAY - IC50) is 4.47 µM.

For the compound `O=C(NNC(=O)C12CC3CC(CC(C3)C1)C2)c1nn(-c2ccccc2)cc1O`, the IC90 came to 3.89 µM. Besides, the IC50 under setting [1] was determined as 3.26 µM.

Consider `O=C(Cn1cc(I)c(=O)c(I)c1)OCC(=O)N1CCCc2ccccc21`, for which the IC90 is above 10 µM. For the same compound, the concentration for half-maximal inhibition (IC50) under setting [1] was above 10 µM.

As for `Cc1ccc(NS(=O)(=O)c2cccc(C(=O)OC(C)C(=O)c3cc(C)n(-c4ccc(Cl)cc4)c3C)c2)cc1` (stereo unspecified), the IC90 turned out to be 3.6 µM. Also, the IC50 (HEPG2TOX_HILL_SLOPE 1.57, HEPG2TOX_R_SQUARED 0.97, PBLUC_HILL_SLOPE 17.7, PBLUC_R_SQUARED 0.634, read-out: LUCIFERASE INFECTION ASSAY - IC50) was 3.18 µM.

Consider `CC(C)Nc1ccc(Nc2ccccc2)cc1`, for which the 90% effect concentration (IC90) is 3.79 µM. Moreover, the 50% inhibitory concentration (IC50) (HEPG2TOX_HILL_SLOPE 3.79, HEPG2TOX_R_SQUARED 0.984, PBLUC_HILL_SLOPE 20.8, PBLUC_R_SQUARED 0.712, read-out: LUCIFERASE INFECTION ASSAY - IC50) was found to be 3.41 µM.

As to `CNc1nc2cnc(Nc3cccc(C(C)=O)c3)cc2n1-c1cccc(F)c1`, the IC90 was above 10 µM. Moreover, under setting [1], the IC50 is above 10 µM.

For the compound `CCCCN(Cc1nc(=O)c2ccccc2[nH]1)C(=O)c1cc2c(F)cccc2s1`, the 90% effect concentration (IC90) is above 10 µM. Also, the IC50 (HEPG2TOX_HILL_SLOPE 1.1, HEPG2TOX_R_SQUARED 0.0883, read-out: LUCIFERASE INFECTION ASSAY - IC50) was above 10 µM.

In the case of `COc1ccccc1N(Cc1cc2ccc(C)cc2[nH]c1=O)S(=O)(=O)c1ccccc1`, the IC90 was above 10 µM. Besides, under setting [1], the IC50 was above 10 µM.

As for `CC1CCCN(C(=O)COc2ccc(-c3nc4ccccc4s3)cc2)C1` (stereo unspecified), the 90% effect concentration (IC90) is above 10 µM. In addition, the IC50 (HEPG2TOX_HILL_SLOPE 6.02, HEPG2TOX_R_SQUARED 0.809, PBLUC_HILL_SLOPE 2.74, PBLUC_R_SQUARED 0.285, read-out: LUCIFERASE INFECTION ASSAY - IC50) is 6.51 µM.

As for `Cc1ccc2nc(C)c(CN3CCN(c4ccc([N+](=O)[O-])cc4Cl)CC3)n2c1`, the IC90 was above 10 µM. Moreover, under setting [1], the IC50 was above 10 µM.

As for `CN1CCN(c2ccc(CNS(=O)(=O)c3cccs3)cn2)CC1`, the IC90 is above 2 µM. Also, the IC50 under setting [1] was above 2 µM.

Turning to `CCc1cccc(CC)c1N=C(S)NC(C)c1ccccc1` (stereo unspecified), the 90% effect concentration (IC90) is above 10 µM. In addition, the IC50 under setting [1] is above 10 µM.

For `CC(C)(C)CC(C)(C)c1ccc(OCC(O)CNC2CCC(O)CC2)cc1` (stereo unspecified), the IC90 is 7.58 µM. The IC50 (HEPG2TOX_HILL_SLOPE 10.5, HEPG2TOX_R_SQUARED 0.116, PBLUC_HILL_SLOPE 3.56, PBLUC_R_SQUARED 0.606, read-out: LUCIFERASE INFECTION ASSAY - IC50) amounted to 4.09 µM.

As to `c1ccn2c(Sc3ncnc4sccc34)nnc2c1`, the concentration for an effect of 90% (IC90) worked out at 9.31 µM. Also, under “PBLUC_HILL_SLOPE 16.1, PBLUC_R_SQUARED 0.0872, read-out: LUCIFERASE INFECTION ASSAY - IC50”, the IC50 was 8.13 µM.

Turning to `C=CCNC(=S)N1CCc2sccc2C1c1ccc(Cl)cc1` (stereo unspecified), the IC90 was above 9.46 µM. For the same compound, the IC50 (PBLUC_HILL_SLOPE 2.11, PBLUC_R_SQUARED 0.465, read-out: LUCIFERASE INFECTION ASSAY - IC50) came to 4.12 µM.

Take `CC(C(=O)Nc1cccc(C#N)c1)N1CCN(c2ncccn2)CC1` (stereo unspecified): the IC90 was above 10 µM. The half-maximal inhibitory concentration (IC50) under setting [1] is above 10 µM.

For the compound `COc1cc2c(cc1OC)C(c1cccs1)N(CC(=O)Nc1ccccc1C(F)(F)F)CC2` (stereo unspecified), the IC90 was above 10 µM. Also, where the note is “FFLUC_HILL_SLOPE 19.7, FFLUC_R_SQUARED 0.151, HEPG2TOX_HILL_SLOPE 1.77, HEPG2TOX_R_SQUARED 0.955, PBLUC_HILL_SLOPE 2.27, PBLUC_R_SQUARED 0.356, read-out: LUCIFERASE INFECTION ASSAY - IC50”, the IC50 is 5.2 µM.

Consider `CC(=O)c1ccc(S(=O)(=O)N(Cc2c(F)cccc2Cl)C2CC2)cc1`, for which the IC90 is above 10 µM. Further, under setting [1], the IC50 was above 10 µM.

Turning to `Cc1cccc(C(C)C)c1NC(=O)C(C)Sc1nc2scc(-c3ccccc3Cl)c2c(=O)n1C` (stereo unspecified), the IC90 stood at 1.19 µM. Also, the IC50 (HEPG2TOX_HILL_SLOPE 0.0632, HEPG2TOX_R_SQUARED 0.325, PBLUC_HILL_SLOPE 16, PBLUC_R_SQUARED 0.687, read-out: LUCIFERASE INFECTION ASSAY - IC50) stood at 1.03 µM.

Regarding `O=C(Nc1ccc(N2CCN(c3ccc(C(F)(F)F)cn3)CC2)nc1)c1cccs1`, the IC90 was above 7.61 µM. Also, the IC50 (PBLUC_HILL_SLOPE 0.747, PBLUC_R_SQUARED 0.763, read-out: LUCIFERASE INFECTION ASSAY - IC50) worked out at 0.638 µM.

With `FC(F)Sc1ccc(Nc2ncnc3sccc23)cc1`, the IC90 is above 10 µM. For the setting “PBLUC_HILL_SLOPE 12.8, PBLUC_R_SQUARED 0.441, read-out: LUCIFERASE INFECTION ASSAY - IC50”, the IC50 stood at 9.17 µM.

In the case of `Cn1ccc2cc(-c3cnc4cnc(-c5cccc(C(N)=O)c5)cn34)ccc21`, the IC90 was above 8.98 µM. In addition, the IC50 (HEPG2TOX_HILL_SLOPE 1.25, HEPG2TOX_R_SQUARED 0.898, PBLUC_HILL_SLOPE 0.953, PBLUC_R_SQUARED 0.66, read-out: LUCIFERASE INFECTION ASSAY - IC50) stood at 1.23 µM.

With `CCOC(=O)c1cc(-c2ccccc2)sc1NC(=O)CSc1nnc(-c2ccc(C(C)(C)C)cc2)n1-c1ccccc1`, the concentration for an effect of 90% (IC90) is above 10 µM. Also, for the setting “FFLUC_HILL_SLOPE 0.186, FFLUC_R_SQUARED 0.0278, read-out: LUCIFERASE INFECTION ASSAY - IC50”, the IC50 was above 10 µM.

As for `CCCc1ccc(C(NC(=O)Cn2ccc(=O)[nH]c2=O)c2cccs2)cc1` (stereo unspecified), the concentration for an effect of 90% (IC90) was above 10 µM. Under setting [1], the IC50 was above 10 µM.

In general, IC50 refers to the concentration that gives 50% inhibition. The IC90 is the concentration needed for an effect of 90%.
